Measured values taken from article PMC10321483 (Chemical Science, 2023).
“And” between values parts separate entries of the source, which are not always exact repeats. Equal values may be shown once. Read-outs that look alike come from different tables or passages of the source.

How the values were obtained:
[1] = molecular target: T1, BlaC (Mycobacterium tuberculosis, UniProt P9WKD3); assay: BlaC fluorogenic inhibition assay with FC5 (dose-response); format: biochemical; details: Table S5 HTS hits, 30 minute inhibitor pre-incubation, two independent repeats
T1 construct: made in house; host or cells: E. coli
T1 sequence (P9WKD3 35-307): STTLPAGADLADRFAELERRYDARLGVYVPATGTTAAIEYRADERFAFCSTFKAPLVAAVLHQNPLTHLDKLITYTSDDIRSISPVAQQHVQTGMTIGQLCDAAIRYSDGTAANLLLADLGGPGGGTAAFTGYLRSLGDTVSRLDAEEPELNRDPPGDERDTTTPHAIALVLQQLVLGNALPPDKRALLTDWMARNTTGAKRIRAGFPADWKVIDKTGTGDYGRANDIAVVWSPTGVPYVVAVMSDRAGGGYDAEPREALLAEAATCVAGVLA
Description: Two types of controls were used. […] In control 2, the BlaC mixture was substituted with the assay buffer. This mixture was incubated for 30 minutes at room temperature without shaking. […] Data were analysed using ActivityBase (IDBS).

[2] = test system: M. tuberculosis (strain H37Rv) growth in THP1 cells; assay: Intracellular assay: Mtb H37Rv-Luc in THP-1 macrophages; format: cell-based, Mycobacterium tuberculosis; details: 5 days, extrapolated from dose-response curve
[3] = test system: M. tuberculosis (strain H37Rv); assay: Extracellular assay: M. tuberculosis H37Rv in medium under replicating conditions; format: cell-based, Mycobacterium tuberculosis
[4] = molecular target: T2, LdtMt2 (Mycobacterium tuberculosis, UniProt I6Y9J2); assay: biochemical; format: biochemical; parameters: made in house; host or cells: E. coli
T2 sequence (I6Y9J2 56-408): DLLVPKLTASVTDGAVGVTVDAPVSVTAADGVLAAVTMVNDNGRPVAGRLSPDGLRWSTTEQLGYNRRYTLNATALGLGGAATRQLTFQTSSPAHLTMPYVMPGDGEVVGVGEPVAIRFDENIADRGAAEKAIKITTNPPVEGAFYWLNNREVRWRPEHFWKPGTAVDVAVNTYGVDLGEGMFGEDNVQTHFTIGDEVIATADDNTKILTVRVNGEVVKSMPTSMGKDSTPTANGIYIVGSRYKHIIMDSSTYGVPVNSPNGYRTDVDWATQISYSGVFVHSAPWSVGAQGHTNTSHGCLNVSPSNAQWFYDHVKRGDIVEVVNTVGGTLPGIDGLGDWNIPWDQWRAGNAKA

[5] = molecular target: T2, LdtMt2; assay: Rate constant of covalent target inactivation (kinact/KI), endpoint competition assay with probe 2; format: biochemical; parameters: made in house; host or cells: E. coli; details: 100 nM LdtMt2, 10 µM probe 2, 3 h incubation; n=4
[6] = test system: HepG2 cells; assay: HepG2 cytotoxicity assay (CellTiter Glo); format: cell-based; details: 48 h, ATP read-out
Description: Solutions of the test compounds (250 nL per well; 11 serial dilutions of 1/3 with starting concentration 100 μM) were dispensed in tissue-culture treated black clear-bottomed 384-well plates (Greiner, cat. no. 781091) with an Echo 555 instrument. 25 μL of HepG2 (ATCC HB-8065) cells (∼3000 cells per well) grown to confluency in Eagle's Minimal Essential Medium (MEM) supplemented with 10% (v/v) heat-inactivated FBS, 1% (v/v) non-essential amino acids (NEAA), and 1% (v/v) penicillin/streptomycin were added to each well. Plates were incubated at 37 °C with 20% O2 and 5% CO2 for 48 h. The plates were then equilibrated to room temperature. ATP levels, measured with CellTiter Glo kit (Promega), were used as cell viability read-out. 25 μL of CellTiter Glo substrate dissolved in the buffer was added to each well. Plates were incubated at room temperature for 10 min and read on ViewLux (PerkinElmer) […].

[7] = molecular target: T2, LdtMt2; assay: biochemical; format: binding; parameters: made in house; host or cells: E. coli
Description: LdtMt2 (5 μM) was incubated with the inhibitor (500 μM) in assay buffer (50 mM tris pH 7.5) for 30 minutes at room temperature in 96-well white PCR plates (25 μL final volume, Starlab). SYPRO Orange (final concentration 6×, according to manufacturer's definition, Invitrogen) was then added and the plate was sealed using a transparent plastic film (Polyolefin StarSeal, Starlab). Fluorescence was monitored (with λex = 492 nm and λem = 610 nm) using a CFX96 Touch Real-Time PCR Detection System (Bio-Rad), while the temperature was increased from 20 to 95 °C in increments of 0.2 °C. Melting temperatures (Tms) were determined using the CFX Maestro Software (Bio-Rad).

[8] = Intrinsic thiol reactivity (kchem), competition with probe 2 for L-glutathione; format: physicochemical; details: for log(kchem) probe 2 (mean ± SD): Table S11 assay validation
[9] = molecular target: T2, LdtMt2; details: 1 μM LdtMt2, denaturing acidic conditions
Description: LdtMt2 (1 μM) in buffer (50 mM tris, pH 7.5) was incubated with an inhibitor (100 μM, 10 μM, or 2 μM, as indicated). Mass spectrometry was performed using a RapidFire200 integrated autosampler/solid phase extraction (SPE) system (Agilent Technologies) coupled to an API40000 triple quadrupole mass spectrometer (Applied Biosystems) operating in the positive ionisation mode. Samples were taken after the specified incubation periods, loaded onto a C4 cartridge (Agilent Technologies), and eluted with organic phase (85% (v/v) acetonitrile, 15% (v/v) water, 0.1% (v/v) formic acid). The cartridge was washed with both the organic phase and an aqueous phase (water, 0.1% (v/v) formic acid). Data were analysed using MassHunter Qualitative Analysis B.07.00 (Agilent Technologies). Spectra were deconvoluted using the maximum entropy algorithm in the same programme.

[10] = parameters: method as in earlier work; details: Table S11; reported values; ref 6 (Sameshima et al., 2017); cited from earlier work
[11] = Table S5, L-glutathione 500 nM, probe 2 10 µM, 15 h

| Compound | pIC50 BlaC [1] | MIC50 intracellular [2] | MIC50 [3] | LE (ligand efficiency) [4] | kinact/KI [5] | IC50 [6] | ΔTm: difference in melting point of LdtMt2 relative to unreacted LdtMt2 (43.8 °C) [7] | Tm: melting point of LdtMt2 after pre-incubation with the compound ([7]; pH 7.5, in °C (unit assumed)) | also measured |
| --- | --- | --- | --- | --- | --- | --- | --- | --- | --- |
| O=C(NC(Cc1ccccc1)C(=O)CCl)c1cc(Cc2ccccc2)on1 (stereo not drawn) [Compound 1] | < 4.0 | 35.5 ± 4.9 µM and < 50 µM | > 100 µM | 0.41 | 1152 ± 87 M⁻¹ s⁻¹ | – | – | – | – |
| O=C1C=CC(=O)N1c1ccc(Oc2ccccc2)c(Cl)c1 [Compound 5] | – | 25.7 ± 0.30 µM and < 50 µM | > 100 µM | 0.53 | 116 ± 6.2 M⁻¹ s⁻¹ | 2.51 ± 0.12 µM | -0.2 °C | – | Tm: melting point of LdtMt2 after pre-incubation with the compound ([7]; pH 7.5): 43.6 ± 0.16 °C |
| O=C(OCN1C(=O)C=CC1=O)c1ccccc1 [Compound 7] | – | 39.8 ± 0.0 µM and < 50 µM | > 100 µM | 0.66 | 156 ± 5.1 M⁻¹ s⁻¹ | 3.9 ± 0.88 µM | – | – | Tm: melting point of LdtMt2 after pre-incubation with the compound ([7]; pH 7.5): 43.1 ± 0.09 °C |
| O=C1CN(C(=O)C=Cc2ccco2)c2ccccc2N1 [Compound 12] | < 4.0 | – | – | 0.56 | – | – | +0.3 | 44.1 ± 0.09 | kchem (apparent intrinsic thiol reactivity) [8, 11]: 0.55 ± 0.11 M⁻¹ s⁻¹ |
| O=c1c2cc(Cl)c(Cl)cc2sn1CCO [Compound 15] | – | – | – | – | – | – | – | – | IC50 ([1]; pIC50 BlaC): 0.427 µM; MIC50 ([3]; Mycobacterium tuberculosis): > 100 µM; IC50 ([6]; Homo sapiens, HepG2): 9.55 ± 0.22 µM; LE (ligand efficiency) ([4]; Table S5, for LdtMt2): 0.74; IC50 ([4]; Table S5 HTS hits, 30 minute inhibitor pre-incubation, two independent repeats, read-out: pIC50 LdtMt2 (converted)): 0.0102 µM; Tm: melting point of LdtMt2 after pre-incubation with the compound ([7]; 5 µM LdtMt2, 500 µM inhibitor, SYPRO Orange, 50 mM Tris pH 7.5): 43.5 ± 0.09 °C; ΔTm at 500 µM ([7]; read-out: ΔTm: difference in melting point of LdtMt2 relative to unreacted LdtMt2 (43.8 °C)): -0.3 °C |
| COc1ccc(CN2C(=O)C(=O)c3cc(Br)cc(C)c32)cc1OC [Compound 17] | < 4.0 | – | > 100 µM | 0.47 | – | 53.5 ± 6.7 µM | +3.0 | 46.8 ± 0.00 | kchem (apparent intrinsic thiol reactivity) [8, 11]: < 0.08 M⁻¹ s⁻¹; pIC50, 0 min [4]: 6.48 ± 0.14; pIC50, 10 min [4]: 6.33 ± 0.14; pIC50, 60 min [4]: 6.28 ± 0.45; pIC50, 120 min [4]: 6.45 ± 0.26 |
| O=C1C(=O)N(Cc2cccc3ccccc23)c2ccc(Br)cc21 [Compound 18] | < 4.0 | 35.5 ± 5.4 µM and < 50 µM | > 100 µM | 0.49 | – | 42.3 ± 3.4 µM | +2.4 | 46.2 ± 0.00 | kchem (apparent intrinsic thiol reactivity) [8, 11]: < 0.08 M⁻¹ s⁻¹; covalent modification of LdtMt2 (adduct observed by SPE-MS) [9]: not observed to modify LdtMt2; pIC50, 0 min [4]: 6.39 ± 0.07; pIC50, 10 min [4]: 6.24 ± 0.23; pIC50, 60 min [4]: 6.49 ± 0.35; pIC50, 120 min [4]: 6.56 ± 0.35 |
| NC(=O)OCC1=C(C(=O)O)N2C(=O)C(NC(=O)C(=CS(=O)(=O)CCc3ccc(O)c(O)c3)c3csc(N)n3)C2SC1 (stereo not drawn) [Compound 20] | 7.72 | 38.9 ± 1.8 µM and < 50 µM | > 100 µM | 0.28 | – | > 100 µM | -1.1 | 42.7 ± 0.25 | – |
| N#Cn1c(-c2cc(F)cc(C(F)(F)F)c2)nc2ccccc21 [Compound 23] | < 4.0 | – | > 100 µM | 0.51 | 265 M⁻¹ s⁻¹ | 28.8 µM | -1.3 | 42.5 ± 0.09 | – |
| Cc1nc(-c2ccc(-c3nc4ccccc4n3C#N)cc2)cs1 [Compound 30] | – | – | > 100 µM | 0.49 | 236 ± 9.5 M⁻¹ s⁻¹ | 3.98 ± 0.1 µM | -1.6 | 42.2 ± 0.00 | – |
| N#Cn1c(-c2ccncc2)nc2ccc(C(=O)c3ccccc3)cc21 [Compound 36] | < 4.0 | 29.5 ± 0.0 µM and < 50 µM | > 100 µM | 0.45 | 51.0 ± 3.4 M⁻¹ s⁻¹ | 32.7 ± 0.38 µM | -3.0 | 40.8 ± 0.59 | lowered the melting temperature of LdtMt2 by [7]: 3.0 °C |
| CC(N)C(=O)NC1CCN(c2ccc(N3CCCC3)cc2C#N)C1 (stereo not drawn) [Compound 39] | < 4.0 | 28.8 ± 0.0 µM and < 50 µM | > 100 µM | 0.47 | – | > 100 µM | -0.7 | 43.1 ± 0.10 | – |
| N#Cn1cnc2ccccc21 [Compound 40] | – | – | – | – | – | – | – | – | kchem (apparent intrinsic thiol reactivity) ([8]; Table S10 known cyanating compounds, unit printed in b38 only): 0.90 ± 0.05 M⁻¹ s⁻¹ and 0.90 M⁻¹ s⁻¹; pIC50 LdtMt2 [4]: 6.31 ± 0.03 |
| N#C[s+]1c2ccccc2c2ccccc21.O=S(=O)([O-])C(F)(F)F [Compound 45, reference compound] | – | – | – | – | – | – | – | – | covalent modification of LdtMt2 (adduct observed by SPE-MS) [9]: did not modify LdtMt2 |
| CCOc1ccc(C(=O)C=CC(=O)O)cc1OCC [i] | – | – | – | – | – | – | – | – | log(kchem) probe 2 (mean ± SD) [8]: 0.65 ± 0.06; log(kchem) o-maleimide BODIPY (mean ± SD) [10]: 0.86 ± 0.09 |
| Cc1ccc(C(=O)C=CC(=O)O)cc1C [ii] | – | – | – | – | – | – | – | – | log(kchem) probe 2 (mean ± SD) [8]: 0.76 ± 0.03; log(kchem) o-maleimide BODIPY (mean ± SD) [10]: 1.07 ± 0.09 |
| O=C(O)C=CC(=O)c1ccc(Br)cc1 [iii] | – | – | – | – | – | – | – | – | log(kchem) probe 2 (mean ± SD) [8]: 0.93 ± 0.02; log(kchem) o-maleimide BODIPY (mean ± SD) [10]: 1.34 ± 0.10 |
